Literature values as cited in PMC4412765 (Chemical biology & drug design, 2014).

System: S. aureus
Settings: cited from earlier work

## C(=C\c1cc2ccc(C3=NCCN3)cc2[nH]1)/c1cc2ccc(C3=NCCN3)cc2[nH]1 [BPH-1417]
  in vitro activity against S. aureus: potent
